Results as given in US7064120B2, “Tricyclic pyridyl carboxamides and derivatives thereof tocolytic oxytocin receptor antagonists” (Wyeth, priority 2001, dated 2006).

Molecular target: T1, human vasopressin V2 receptor subtype (Homo sapiens, UniProt P30518)
T1 construct: host or cells: CHO cells, stably transfected (pZeoSV vector)
Assay: Vasopressin binding in CHO cell membranes expressing human vasopressin V2 subtype receptors ([3H]arginine vasopressin radioligand binding)
Conditions: for inhibition at 0.1 µM: 100 nM
Summary of the method: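 Membranes from CHO cells stably expressing human V2 receptor (25 to 50 μg protein/well) incubated 60 min at room temperature with [3H]arginine vasopressin in Tris-HCl pH 7.4 buffer with MgCl2, BSA and protease inhibitors. Filtration, scintillation counting; percent inhibition at one concentration or IC50 (nM).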

T1 sequence (P30518 whole entry): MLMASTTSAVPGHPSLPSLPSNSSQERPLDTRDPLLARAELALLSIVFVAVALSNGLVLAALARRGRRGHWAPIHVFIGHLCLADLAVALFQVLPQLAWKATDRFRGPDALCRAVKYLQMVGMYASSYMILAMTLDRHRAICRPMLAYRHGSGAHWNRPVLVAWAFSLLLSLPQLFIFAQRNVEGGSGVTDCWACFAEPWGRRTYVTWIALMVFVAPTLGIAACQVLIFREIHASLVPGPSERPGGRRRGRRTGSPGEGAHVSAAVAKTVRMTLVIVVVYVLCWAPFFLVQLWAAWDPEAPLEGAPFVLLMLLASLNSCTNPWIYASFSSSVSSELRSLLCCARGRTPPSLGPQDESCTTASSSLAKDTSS

Compound	inhibition at 0.1 µM	IC50 (value in parentheses)
COc1cc(C(=O)N2Cc3ccc(C(=O)NCc4ccncc4)n3Cc3ccccc32)ccc1-c1cccc2ccccc12 [Example 96, 10-[3-Methoxy-4-(naphthalen-1-yl)benzoyl]-N-(4-pyridinylmethyl)-10,11-dihydro-5H-pyrrolo[2,1-c][1,4]benzodiazepine-3-carboxamide]	22%	
COc1cccc(-c2ccc(C(=O)N3Cc4ccc(C(=O)NCc5ccncc5)n4Cc4ccccc43)cc2C)c1 [Example 90, 10-[(3′-Methoxy-2-methyl-[1,1′-biphenyl]-4-yl)carbonyl]-N-(4-pyridinylmethyl)-10,11-dihydro-5H-pyrrolo[2,1-c][1,4]benzodiazepine-3-carboxamide]	11%	
Cc1ccccc1-c1ccc(C(=O)N2Cc3ccc(C(=O)NCc4ccncc4)n3Cc3ccccc32)cc1C [Example 89, 10-[(2,2′-Dimethyl-[1,1′-biphenyl]-4-yl)carbonyl]-N-(4-pyridinylmethyl)-10,11-dihydro-5H-pyrrolo[2,1-c][1,4]benzodiazepine-3-carboxamide]	15%	
COc1cccc(-c2cc(OC)c(C(=O)N3Cc4ccc(C(=O)NCc5ccncc5)n4Cc4ccccc43)cc2Cl)c1 [Example 95, 10-[(6-Chloro-3,3′-dimethoxy-[1,1′-biphenyl]-4-yl)carbonyl]-N-(4-pyridinylmethyl)-10,11-dihydro-5H-pyrrolo[2,1-c][1,4]benzodiazepine-3-carboxamide]	-1%	
COc1ccccc1-c1ccc(C(=O)N2Cc3ccc(C(=O)N(C)CCc4ccccn4)n3Cc3ccccc32)cc1C [Example 65, 10-[(2′-Methoxy-2-methyl-[1,1′-biphenyl]-4-yl)carbonyl]-N-methyl-N-[2-(2-pyridinyl)ethyl]-10,11-dihydro-5H-pyrrolo[2,1-c][1,4]benzodiazepine-3-carboxamide]	16%	

The next lines start with the values.

inhibition at 0.1 µM	IC50 (value in parentheses)	Compound
14%		COc1ccccc1-c1ccc(C(=O)N2Cc3ccc(C(=O)N4CCN(c5ccccn5)CC4)n3Cc3ccccc32)cc1OC [Example 84, {10-[(2,2′-Dimethoxy-[1,1′-biphenyl]-4-yl)carbonyl]-10,11-dihydro-5H-pyrrolo[2,1-c][1,4]benzodiazepin-3-yl}[4-(2-pyridinyl)-1-piperazinyl]methanone]
8%		COc1ccccc1-c1ccc(C(=O)N2Cc3ccc(C(=O)N4CCN(c5ccccn5)CC4)n3Cc3ccccc32)cc1 [Example 78, {10-[(2′-Methoxy-[1,1′-biphenyl]-4-yl)carbonyl]-10,11-dihydro-5H-pyrrolo[2,1-c][1,4]benzodiazepin-3-yl}[4-(2-pyridinyl)-1-piperazinyl]methanone]
	545 nM	COc1ccccc1-c1ccc(C(=O)N2Cc3ccc(C(=O)N4CCN(c5ccncc5)CC4)n3Cc3ccccc32)cc1C [Example 113, {10-[(2′-Methoxy-2-methyl-[1,1′-biphenyl]-4-yl)carbonyl]-10,11-dihydro-5H-pyrrolo[2,1-c][1,4]benzodiazepin-3-yl}[4-(4-pyridinyl)-1-piperazinyl]methanone]
10%		COc1ccccc1-c1ccc(C(=O)N2Cc3ccc(C(=O)NCc4ccncc4)n3Cc3ccccc32)cc1 [Example 91, 10-[(2′-Methoxy-[1,1′-biphenyl]-4-yl)carbonyl]-N-(4-pyridinylmethyl)-10,11-dihydro-5H-pyrrolo[2,1-c][1,4]benzodiazepine-3-carboxamide]
5%		COc1cc(-c2ccccc2C)c(Cl)cc1C(=O)N1Cc2ccc(C(=O)N3CCN(c4ccccn4)CC3)n2Cc2ccccc21 [Example 81, {10-[(6-Chloro-3-methoxy-2′-methyl-[1,1′-biphenyl]-4-yl)carbonyl]-10,11-dihydro-5H-pyrrolo[2,1-c][1,4]benzodiazepin-3-yl}[4-(2-pyridinyl)-1-piperazinyl]methanone]
